Measurements taken from PMC7461568, “Novel Cyclic Lipopeptide Antibiotics: Effects of Acyl Chain Length and Position” (International Journal of Molecular Sciences, 2020).
Values after ≈ are worked out from the molar mass of the structure shown. Where a SMILES comes first, the peptide text is derived from it. [ ]: non-standard residue; d: D form. The star is where a group is joined. 2Nal = N[C@@H](Cc1ccc2ccccc2c1)C(=O)O; Octanoyl = CCCCCCCC(=O)*; Dab = NCC[C@H](N)C(=O)O; AEEA = NCCOCCOCC(=O)O

How the values were obtained:
P. aeruginosa ATCC 27853 [1] = format: cell-based, Pseudomonas aeruginosa; settings: MHB-II, inoculum 5 × 10^5 CFU/mL, 37 °C, 18–24 h, visual read-out, triplicate
Method: (§1) In the original report on S3(B), MIC experiments were carried out by using non-cation-adjusted MHB-I media. To this, bovine serum albumin (BSA) and acetic acid were added. The rationale for choosing a medium without cations is that cation-adjusted media (MHB-II) in some cases causes substantial inhibition of the activity of cationic peptides. Furthermore, some peptides are at risk of precipitation when diluted into MHB medium, which can be avoided via the addition of BSA and acetic acid. However, the use of MHB-II is favorable to imitate the in vivo conditions as much as possible. Both media were tested with and without the addition of BSA and acetic acid by trial and error. […]
(§2) Cation-adjusted Mueller-Hinton broth (MHB-II) media (BD BBLTM Beef extract powder, BD BactoTMCasamino acids, and DIFCO soluble starch was from Becton, Dickinson and Company©, Franklin Lakes, NJ, USA). […] A VersaMaxTM Tunable Microplate Reader (Molecular Devices LLC, Sunnyvale, CA, USA) was used and the data were evaluated on a Softmax® Pro (Molecular Devices LLC).
(§3) The MIC experiments were performed according to a protocol adapted from Wiegand et al., with minor modifications. The MICs were determined in triplicate. […] The MIC values were visually evaluated, and the MIC was set to the lowest concentration […] based on triplicate measurements. […]

S. aureus ATCC 29213 = test: microbe, parasite or virus in culture; format: cell-based, Staphylococcus aureus; settings: S. aureus ATCC 29213; MHB-II, inoculum 5 × 10^5 CFU/mL, 37 °C, 18–24 h, visual read-out, triplicate
Method: as §1, §2, §3

[2] = Hydrophobicity by analytical RP-HPLC (%B at peak elution); format: physicochemical; settings: chromatographic, percentage of mobile phase B at the peak elution time
From the text: To investigate the effect of attaching fatty acids to a macrocycle, fatty acid tails of different lengths were used. When the carbon chain was elongated, the hydrophobicity of the peptide was increased gradually. Herein, the hydrophobicity is expressed as the percentage of mobile phase B at the peak elution time on an RP-HPLC system.

K. pneumonia ATCC 13883 = format: cell-based, Klebsiella pneumoniae; settings: K. pneumoniae ATCC 13883; MHB-II, inoculum 5 × 10^5 CFU/mL, 37 °C, 18–24 h, visual read-out, triplicate
Method: In the original report on S3(B), MIC experiments were carried out by using non-cation-adjusted MHB-I media. To this, bovine serum albumin (BSA) and acetic acid were added. The rationale for choosing a medium without cations is that cation-adjusted media (MHB-II) in some cases causes substantial inhibition of the activity of cationic peptides. Furthermore, some peptides are at risk of precipitation when diluted into MHB medium, which can be avoided via the addition of BSA and acetic acid. However, the use of MHB-II is favorable to imitate the in vivo conditions as much as possible. Both media were tested with and without the addition of BSA and acetic acid by trial and error. The use of pure MHB-II was compatible with S3(B) and its fatty acid analogues, and therefore was chosen for the MIC determinations. Noticeably, MHB-I with BSA and acetic acid led to precipitation of lipopeptides in the present work.
Cation-adjusted Mueller-Hinton broth (MHB-II) media (BD BBLTM Beef extract powder, BD BactoTMCasamino acids, and DIFCO soluble starch was from Becton, Dickinson and Company©, Franklin Lakes, NJ, USA). MHB media supplemented with 0.2% BSA was from Sigma Aldrich (St. Louis, MO, USA) and 0.01% acetic acid from VWR®. The 96 well plate cell-culture cluster, round-bottom, polypropylene plates, and V-shaped 96 well polypropylene plates were purchased from Corning® Inc., Costar®, Corning, NY, USA. Microseal® film was obtained from Bio-Rad Laboratories, Inc., Hercules, CA, USA. A VersaMaxTM Tunable Microplate Reader (Molecular Devices LLC, Sunnyvale, CA, USA) was used and the data were evaluated on a Softmax® Pro (Molecular Devices LLC).
The MIC experiments were performed according to a protocol adapted from Wiegand et al., with minor modifications. The MICs were determined in triplicate. The peptides were dissolved in Milli-Q water to produce 10 mg/mL stock solutions in small glass containers. The bacterial isolates to be tested were streaked onto agar plates to obtain single colonies, and the plates were incubated at 37 °C for 18–24 h. The strains tested were S. aureus ATCC 29213, P. aeruginosa ATCC 27853, E. coli ATCC 25922, A. baumannii ATCC 19606, and K. pneumonia ATCC 13883. Test compounds were prepared in 2-fold dilutions in 50 μL volumes in polypropylene microtiter plates. Bacterial cultures grown to OD600 = 0.1–0.4 were diluted to a desired OD600 of 0.001–0.002 corresponding to 1 × 10^6 CFU/mL. Next, 50 μL bacterial suspension was added to the microtiter plates, giving a final bacterial inoculum of 5 × 10^5 CFU/mL per well. The plates were incubated at 37 °C for 18–24 h. […] The MIC values were visually evaluated, and the MIC was set to the lowest concentration […] based on triplicate measurements. […]

A. baumannii ATCC 19606 = format: cell-based, Acinetobacter baumannii; settings: MHB-II, inoculum 5 × 10^5 CFU/mL, 37 °C, 18–24 h, visual read-out, triplicate
Method: as §1, §2, §3

P. aeruginosa ATCC 27853 [3] = tested on: P. aeruginosa ATCC 27853
Method: The MIC constitutes a limited measure for antimicrobial activity. It indicates whether or not AMPs in different concentrations are able to prevent visible growth of bacteria.
Time-kill experiments were performed on balanced exponentially growing cultures of P. aeruginosa ATCC 27853. We used balanced cultures as described in Oddo et al.. Briefly, overnight cultures were prepared in MHB-II broth at 37 °C with shaking. Overnight cultures were back-diluted and grown exponentially for no less than 8–10 generations before experimentation. When experiments were done, exponentially growing cultures were back-diluted to an OD600 = 0.0005 approximately 5 × 10^5 CFU, into fresh MHB-II heated to 37 °C. Samples (250 μL) were taken at time points 0, 1, 3, 5, and 24 h. Samples were spun down at 8000× g for 5 min and washed in 1 mL of NaCl 0.9% before being spun down again and re-suspended in 250 μL NaCl 0.9%. From this, 10-fold dilution series were prepared and 10 μL samples were spot-plated in triplicate onto LB-agar. From the undiluted sample, 100 μL samples were also plated, i.e., giving a detection limit of 10 CFU/mL.

Compound: CCCCCCCC(=O)NCC[C@@H]1NC(=O)[C@H](CCN)NC(=O)[C@H](CCCNC(=N)N)NC(=O)[C@H](Cc2ccc3ccccc3c2)NC(=O)[C@H](CCN)NC(=O)[C@H](CC(N)=O)NC(=O)[C@H](CCN)NC(=O)[C@H](Cc2ccc3ccccc3c2)NC(=O)COCCOCCNC1=O [(C8)^5] (cyclo([Dab][2Nal]R[Dab][Dab](Octanoyl)[AEEA][2Nal][Dab]N))
- Minimum inhibitory concentration, PA (P. aeruginosa ATCC 27853 [1]): 8 µg/mL (≈ 5.99 µM)
- Minimum inhibitory concentration, SA (S. aureus ATCC 29213): 8 µg/mL (≈ 5.99 µM)
- %B at peak of elution in analytical HPLC (hydrophobicity) [2]: 69%
- %B at peak of elution in analytical HPLC (hydrophobicity) ([2]; listed as (C8)^7): 71%
- Minimum inhibitory concentration, KP (K. pneumonia ATCC 13883): >64 µg/mL
- Minimum inhibitory concentration, AB (A. baumannii ATCC 19606): 16 µg/mL (≈ 12 µM)
- bacterial cell count over the first 5 h (P. aeruginosa ATCC 27853 [3]; 1 × MIC (8 μg/mL), 0–5 h, MHB-II, 37 °C): did not change
- log reduction of cell count within first hour of treatment (P. aeruginosa ATCC 27853 [3]; 5 × MIC ((C8)^5 40 μg/mL; colistin 2.5 μg/mL), 1 h, MHB-II, 37 °C, shaking, n = 3): 4.5 log
- cell count / growth after 24 h (P. aeruginosa ATCC 27853 [3]; 5 × MIC ((C8)^5 40 μg/mL; colistin 2.5 μg/mL), 24 h, detection limit 10 CFU/mL): 10^4 CFU/mL
- killing of the bacteria in the original inoculum (P. aeruginosa ATCC 27853 [3]; ATCC 27853, 1 h, 40 μg/mL): > 99.9%
